Test results taken from ChEMBL document CHEMBL5442175, “EUbOPEN Chemogenomics Library - PDSP Secondary Binding” (2024).

Tests used:
[1] = target: T1, 5-hydroxytryptamine receptor 3A (Homo sapiens, UniProt P46098); experiment: (§1) PDSP Secondary Binding target: HTR3A - Compounds are tested at 10 uM concentration, plate are incubated at room temperature in the dark for 90 minutes. Reaction are stopped by vacuum filtration onto 0.3% polyethyleneimine soaked filter mats using Filtermate harvester. Scintillation cocktail is then melted onto microwave-dried filters on a hot plate and the radio activity is counted in Microbia counter.
T1 sequence (P46098 whole entry): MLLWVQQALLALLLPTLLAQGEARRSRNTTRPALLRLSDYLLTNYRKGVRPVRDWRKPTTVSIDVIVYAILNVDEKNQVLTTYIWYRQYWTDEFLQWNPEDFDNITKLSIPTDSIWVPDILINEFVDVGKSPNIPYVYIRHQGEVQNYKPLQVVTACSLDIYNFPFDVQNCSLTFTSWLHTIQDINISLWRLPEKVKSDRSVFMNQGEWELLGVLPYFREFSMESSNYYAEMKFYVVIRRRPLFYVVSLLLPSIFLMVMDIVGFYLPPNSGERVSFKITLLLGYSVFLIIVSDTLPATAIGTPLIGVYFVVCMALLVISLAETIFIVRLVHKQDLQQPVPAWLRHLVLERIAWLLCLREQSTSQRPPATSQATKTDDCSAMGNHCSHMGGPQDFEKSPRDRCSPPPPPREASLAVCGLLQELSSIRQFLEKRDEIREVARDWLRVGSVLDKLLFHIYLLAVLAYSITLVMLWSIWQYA

[2] = target: T2, Muscarinic acetylcholine receptor M4 (Homo sapiens, UniProt P08173); experiment: as §1, with “CHRM4” for “HTR3A”
T2 sequence (P08173 whole entry): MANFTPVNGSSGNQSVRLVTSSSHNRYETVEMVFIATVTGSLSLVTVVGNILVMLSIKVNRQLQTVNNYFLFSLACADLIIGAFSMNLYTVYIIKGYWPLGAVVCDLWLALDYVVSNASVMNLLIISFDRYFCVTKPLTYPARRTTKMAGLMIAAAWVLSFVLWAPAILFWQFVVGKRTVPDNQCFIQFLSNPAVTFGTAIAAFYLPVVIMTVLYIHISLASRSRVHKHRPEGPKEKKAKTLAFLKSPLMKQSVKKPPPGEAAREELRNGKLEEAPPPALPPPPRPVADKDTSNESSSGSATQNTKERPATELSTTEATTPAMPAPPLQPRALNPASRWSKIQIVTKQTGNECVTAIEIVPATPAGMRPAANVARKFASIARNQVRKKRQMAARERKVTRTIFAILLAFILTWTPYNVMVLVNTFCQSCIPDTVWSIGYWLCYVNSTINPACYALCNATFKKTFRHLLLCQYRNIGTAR

[3] = target: Kappa-type opioid receptor (Homo sapiens, UniProt P41145); experiment: as §1, with “OPRK1” for “HTR3A”
[4] = target: Muscarinic acetylcholine receptor M3 (Homo sapiens, UniProt P20309); experiment: as §1, with “CHRM3” for “HTR3A”
[5] = target: Sodium-dependent noradrenaline transporter (Homo sapiens, UniProt P23975); experiment: as §1, with “SLC6A2” for “HTR3A”
[6] = target: T3, Alpha-2A adrenergic receptor (Homo sapiens, UniProt P08913); experiment: as §1, with “ADRA2A” for “HTR3A”
T3 sequence (P08913 whole entry): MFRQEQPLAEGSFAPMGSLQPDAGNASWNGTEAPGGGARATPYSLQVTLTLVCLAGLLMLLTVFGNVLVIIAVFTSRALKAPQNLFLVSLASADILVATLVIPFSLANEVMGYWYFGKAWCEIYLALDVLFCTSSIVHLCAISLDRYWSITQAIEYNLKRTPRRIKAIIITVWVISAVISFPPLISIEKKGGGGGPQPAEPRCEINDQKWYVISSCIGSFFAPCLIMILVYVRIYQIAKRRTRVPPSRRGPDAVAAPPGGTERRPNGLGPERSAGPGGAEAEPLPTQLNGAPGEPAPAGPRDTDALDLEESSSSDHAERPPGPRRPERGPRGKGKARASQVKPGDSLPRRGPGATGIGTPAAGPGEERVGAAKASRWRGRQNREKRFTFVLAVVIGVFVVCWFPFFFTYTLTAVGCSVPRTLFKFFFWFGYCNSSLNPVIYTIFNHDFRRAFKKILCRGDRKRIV

Mu-type opioid receptor = Mu-type opioid receptor (Homo sapiens, UniProt P35372); experiment: as §1, with “OPRM1” for “HTR3A”
[7] = target: T4, Alpha-2C adrenergic receptor (Homo sapiens, UniProt P18825); experiment: as §1, with “ADRA2C” for “HTR3A”
T4 sequence (P18825 whole entry): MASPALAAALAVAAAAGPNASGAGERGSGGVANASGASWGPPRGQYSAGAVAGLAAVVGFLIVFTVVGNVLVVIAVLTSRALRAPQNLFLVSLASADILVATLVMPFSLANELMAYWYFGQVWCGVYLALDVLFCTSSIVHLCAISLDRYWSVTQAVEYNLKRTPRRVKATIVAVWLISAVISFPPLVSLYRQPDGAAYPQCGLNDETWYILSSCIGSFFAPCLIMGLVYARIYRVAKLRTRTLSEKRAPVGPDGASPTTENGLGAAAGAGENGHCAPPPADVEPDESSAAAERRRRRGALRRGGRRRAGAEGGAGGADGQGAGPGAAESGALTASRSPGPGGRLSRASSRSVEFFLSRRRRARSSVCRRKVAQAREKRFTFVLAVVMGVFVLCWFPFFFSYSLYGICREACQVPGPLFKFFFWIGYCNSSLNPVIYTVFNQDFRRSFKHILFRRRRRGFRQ

[8] = target: 5-hydroxytryptamine receptor 1B (Homo sapiens, UniProt P28222); experiment: as §1, with “HTR1B” for “HTR3A”
[9] = target: Sodium-dependent dopamine transporter (Homo sapiens, UniProt Q01959); experiment: as §1, with “SLC6A3” for “HTR3A”
[10] = target: T5, Alpha-2B adrenergic receptor (Homo sapiens, UniProt P18089); experiment: as §1, with “ADRA2B” for “HTR3A”
T5 sequence (P18089 whole entry): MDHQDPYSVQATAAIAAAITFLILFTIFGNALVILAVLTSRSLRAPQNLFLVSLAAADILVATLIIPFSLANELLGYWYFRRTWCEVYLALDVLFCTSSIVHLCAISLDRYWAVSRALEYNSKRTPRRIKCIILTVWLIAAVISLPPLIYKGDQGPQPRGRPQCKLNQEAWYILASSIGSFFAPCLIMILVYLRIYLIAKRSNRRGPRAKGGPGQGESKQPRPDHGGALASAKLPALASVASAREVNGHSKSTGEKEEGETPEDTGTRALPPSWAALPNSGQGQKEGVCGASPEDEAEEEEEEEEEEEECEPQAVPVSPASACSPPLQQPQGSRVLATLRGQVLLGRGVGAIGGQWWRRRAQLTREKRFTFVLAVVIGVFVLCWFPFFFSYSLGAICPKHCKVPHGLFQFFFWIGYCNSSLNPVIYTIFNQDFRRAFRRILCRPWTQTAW

Histamine H2 receptor = Histamine H2 receptor (Homo sapiens, UniProt P25021); experiment: as §1, with “HRH2” for “HTR3A”
[11] = target: 5-hydroxytryptamine receptor 2B (Homo sapiens, UniProt P41595); experiment: as §1, with “HTR2B” for “HTR3A”
Sequence of 5-hydroxytryptamine receptor 2B (P41595 whole entry): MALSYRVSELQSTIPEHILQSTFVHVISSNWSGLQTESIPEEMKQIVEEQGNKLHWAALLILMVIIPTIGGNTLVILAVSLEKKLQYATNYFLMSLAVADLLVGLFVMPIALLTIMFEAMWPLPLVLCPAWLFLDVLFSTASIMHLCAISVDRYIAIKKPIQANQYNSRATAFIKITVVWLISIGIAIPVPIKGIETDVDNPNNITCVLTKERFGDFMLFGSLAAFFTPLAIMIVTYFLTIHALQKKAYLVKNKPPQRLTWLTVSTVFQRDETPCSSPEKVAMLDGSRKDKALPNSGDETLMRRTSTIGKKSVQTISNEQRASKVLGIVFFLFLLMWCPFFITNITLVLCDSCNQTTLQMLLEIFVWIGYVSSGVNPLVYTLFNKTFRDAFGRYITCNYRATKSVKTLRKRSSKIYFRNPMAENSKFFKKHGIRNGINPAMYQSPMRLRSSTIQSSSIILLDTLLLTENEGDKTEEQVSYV

Sequence of Sodium-dependent noradrenaline transporter (P23975 whole entry): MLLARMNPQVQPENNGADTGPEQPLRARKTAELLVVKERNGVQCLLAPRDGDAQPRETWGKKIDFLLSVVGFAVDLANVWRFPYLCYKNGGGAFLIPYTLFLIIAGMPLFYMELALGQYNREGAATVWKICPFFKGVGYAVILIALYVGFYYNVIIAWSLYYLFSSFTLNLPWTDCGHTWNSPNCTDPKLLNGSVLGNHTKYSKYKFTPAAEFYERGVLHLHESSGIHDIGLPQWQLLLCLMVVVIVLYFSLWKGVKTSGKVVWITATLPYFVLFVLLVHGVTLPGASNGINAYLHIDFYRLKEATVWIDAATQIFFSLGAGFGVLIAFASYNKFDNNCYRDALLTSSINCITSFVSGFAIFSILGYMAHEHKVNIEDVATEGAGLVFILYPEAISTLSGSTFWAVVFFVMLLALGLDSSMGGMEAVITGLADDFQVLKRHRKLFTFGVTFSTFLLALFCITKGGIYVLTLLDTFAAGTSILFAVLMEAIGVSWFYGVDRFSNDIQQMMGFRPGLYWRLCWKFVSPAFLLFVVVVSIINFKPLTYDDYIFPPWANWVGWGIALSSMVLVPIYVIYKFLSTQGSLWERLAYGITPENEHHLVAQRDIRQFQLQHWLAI
Sequence of Sodium-dependent dopamine transporter (Q01959 whole entry): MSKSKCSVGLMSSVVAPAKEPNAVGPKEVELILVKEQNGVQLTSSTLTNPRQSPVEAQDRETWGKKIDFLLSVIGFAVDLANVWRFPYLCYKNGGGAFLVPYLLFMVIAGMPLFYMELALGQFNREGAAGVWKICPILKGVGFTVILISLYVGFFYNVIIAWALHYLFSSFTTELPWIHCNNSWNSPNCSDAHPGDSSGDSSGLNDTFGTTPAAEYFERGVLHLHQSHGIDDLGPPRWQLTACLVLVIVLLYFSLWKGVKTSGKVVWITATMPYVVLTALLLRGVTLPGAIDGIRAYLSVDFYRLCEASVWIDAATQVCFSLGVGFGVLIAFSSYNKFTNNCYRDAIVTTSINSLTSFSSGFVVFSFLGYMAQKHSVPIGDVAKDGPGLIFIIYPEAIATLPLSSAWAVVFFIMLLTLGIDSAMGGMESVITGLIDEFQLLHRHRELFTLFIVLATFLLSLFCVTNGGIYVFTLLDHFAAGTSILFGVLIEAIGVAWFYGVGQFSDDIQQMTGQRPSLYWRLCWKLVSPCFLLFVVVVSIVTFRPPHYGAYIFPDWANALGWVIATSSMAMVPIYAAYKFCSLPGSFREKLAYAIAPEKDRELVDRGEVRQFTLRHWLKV
Sequence of Muscarinic acetylcholine receptor M3 (P20309 whole entry): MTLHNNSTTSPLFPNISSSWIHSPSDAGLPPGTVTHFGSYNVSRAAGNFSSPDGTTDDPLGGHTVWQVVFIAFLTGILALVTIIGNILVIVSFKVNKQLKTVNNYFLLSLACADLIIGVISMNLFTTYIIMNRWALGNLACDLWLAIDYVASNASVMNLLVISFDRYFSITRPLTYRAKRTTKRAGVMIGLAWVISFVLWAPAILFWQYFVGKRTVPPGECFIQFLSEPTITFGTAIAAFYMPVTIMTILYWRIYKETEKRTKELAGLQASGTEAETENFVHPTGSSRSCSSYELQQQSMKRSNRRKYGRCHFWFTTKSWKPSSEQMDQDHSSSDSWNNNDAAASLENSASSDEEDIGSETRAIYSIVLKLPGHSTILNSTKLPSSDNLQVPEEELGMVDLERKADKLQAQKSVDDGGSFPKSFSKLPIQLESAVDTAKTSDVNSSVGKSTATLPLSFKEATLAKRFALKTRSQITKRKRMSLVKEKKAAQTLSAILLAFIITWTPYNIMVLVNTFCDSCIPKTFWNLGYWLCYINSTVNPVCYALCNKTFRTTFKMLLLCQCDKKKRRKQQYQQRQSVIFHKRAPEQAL
Sequence of Kappa-type opioid receptor (P41145 whole entry): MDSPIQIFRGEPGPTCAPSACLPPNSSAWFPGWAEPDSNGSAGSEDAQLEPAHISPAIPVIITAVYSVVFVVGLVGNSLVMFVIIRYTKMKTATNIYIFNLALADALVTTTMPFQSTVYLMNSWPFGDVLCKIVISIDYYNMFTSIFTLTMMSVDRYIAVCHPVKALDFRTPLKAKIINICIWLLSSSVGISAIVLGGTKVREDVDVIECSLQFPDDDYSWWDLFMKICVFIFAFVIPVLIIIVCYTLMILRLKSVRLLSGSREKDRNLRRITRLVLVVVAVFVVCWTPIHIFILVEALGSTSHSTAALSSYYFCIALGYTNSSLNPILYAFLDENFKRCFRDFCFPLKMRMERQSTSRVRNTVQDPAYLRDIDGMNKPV
Sequence of 5-hydroxytryptamine receptor 1B (P28222 whole entry): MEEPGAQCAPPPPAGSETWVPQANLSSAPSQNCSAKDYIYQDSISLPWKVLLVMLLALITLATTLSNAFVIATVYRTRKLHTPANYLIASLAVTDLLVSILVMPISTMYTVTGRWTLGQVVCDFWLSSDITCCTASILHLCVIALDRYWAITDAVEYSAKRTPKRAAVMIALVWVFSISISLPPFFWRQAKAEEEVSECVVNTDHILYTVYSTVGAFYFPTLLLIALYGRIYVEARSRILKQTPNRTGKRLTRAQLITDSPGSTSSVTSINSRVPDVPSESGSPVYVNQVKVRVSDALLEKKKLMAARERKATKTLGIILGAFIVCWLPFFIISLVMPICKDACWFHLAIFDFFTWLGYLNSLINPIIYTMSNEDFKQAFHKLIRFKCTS
Sequence of Histamine H2 receptor (P25021 whole entry): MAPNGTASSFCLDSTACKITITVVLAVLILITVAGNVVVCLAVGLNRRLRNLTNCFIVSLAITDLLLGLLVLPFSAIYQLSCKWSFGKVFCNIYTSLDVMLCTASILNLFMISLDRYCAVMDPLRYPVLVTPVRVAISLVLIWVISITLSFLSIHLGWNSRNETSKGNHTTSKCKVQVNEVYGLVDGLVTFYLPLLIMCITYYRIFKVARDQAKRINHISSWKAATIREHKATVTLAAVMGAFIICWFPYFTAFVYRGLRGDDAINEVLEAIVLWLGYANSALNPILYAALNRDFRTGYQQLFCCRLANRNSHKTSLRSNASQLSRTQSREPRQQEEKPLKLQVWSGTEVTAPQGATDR
Sequence of Mu-type opioid receptor (P35372 whole entry): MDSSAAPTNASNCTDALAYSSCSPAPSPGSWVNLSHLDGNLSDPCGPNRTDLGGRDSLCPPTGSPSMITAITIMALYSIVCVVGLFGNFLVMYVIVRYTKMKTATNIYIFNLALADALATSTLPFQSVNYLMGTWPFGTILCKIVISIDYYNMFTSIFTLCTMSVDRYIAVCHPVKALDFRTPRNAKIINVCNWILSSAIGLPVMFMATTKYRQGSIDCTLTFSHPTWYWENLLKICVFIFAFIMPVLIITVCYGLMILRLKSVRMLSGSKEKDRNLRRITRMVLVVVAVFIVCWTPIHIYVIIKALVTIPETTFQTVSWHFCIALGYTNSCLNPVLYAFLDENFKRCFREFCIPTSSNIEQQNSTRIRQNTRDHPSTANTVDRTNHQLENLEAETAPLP

Ki [1]: 1660 nM
Ki [2]: 46.9 nM
Ki [3]: 1940 nM
Ki [4]: 173 nM
Ki [5]: 2850 nM
Ki [6]: 767 nM
Ki (Mu-type opioid receptor): 1130 nM
Ki [7]: 585 nM
Ki [8]: 2160 nM
Ki [9]: 673 nM
Ki [10]: 3.23 µM
Ki (Histamine H2 receptor): 2840 nM
Ki [11]: 500 nM
Compound: CCOC(=O)c1c(C)[nH]c2ccc3c(c12)CN1CCc2cc(OC)ccc2C1O3 (stereo not drawn)
